# Assay results from patent publication US11807620B2, “Quinazolinone compounds and related compounds” (PLEXIUM, INC., priority 2020, dated 2023).
# What was measured:
# cereblon (NanoLuc-CRBN) = target: T1, cereblon (NanoLuc-CRBN) (Homo sapiens, UniProt Q96SW2); assay: NanoBRET CRBN Cellular Target Engagement Assay; assay type: binding; conditions: compound tested at 10 μM, HEK293T cells transfected with NanoLuc-CRBN, 2 hr incubation; for remaining activity at 10 µM: lower = higher affinity, read-out: % tracer bound At the end of assay; for inhibition at 10 µM: read-out: % tracer removed From CBLN
# T1 construct: host or cells: HEK293T
# From the text: The following example measures the extent to which a test compound of this invention binds to cereblon. In this example, a commercially available cereblon binding test kit (Promega Corporation, Madison, Wis., USA) was used but adapted to a 384 well format.
# The kit comprises a tracer that binds to cereblon to form a tracer-cereblon complex. This complex is reversible. Upon addition of the test compound, competition between the tracer and the test compound for the binding site(s) on cereblon occurs. The extent of tracer release from cereblon correlates to the affinity of test compound to bind to cereblon. The higher the affinity, the more tracer is released from cereblon.
# The assay is a homogenous cell-based assay that used bioluminescence resonance energy transfer (BRET) to measure cereblon target compound binding which causes loss of BRET. Lower BRET values correlate to higher loss of tracer bound to cereblon and, accordingly, higher the levels of target compound binding to cereblon.
# The specifics of the assay include HEK293T cells were transfected with a NanoLuc-CRBN expression plasmid using Fugene as described. Approximately 24 hr later, transfected cells were washed with 1× Phosphate Buffered Saline (PBS) and harvested using trypsin. Cells were resuspended in Opti-MEM (available from Thermo Fisher Scientific) at a concentration of 2×10^5 cells/mL. A ratio of 1 part 100× Tracer to 4 parts NanoBRET Tracer Dilution Buffer was used to make a 20× Tracer stock. Next, 40 μl cells per well containing 1× tracer was dispensed into 384 well white tissue culture treated plates. Compounds were then dispensed using a D330e Digital Dispenser (Tecan Trading AG) and plates were allowed to incubate for 2 hr at 37° C., 5% CO2. Immediately prior to BRET measurements, a 3× Complete NanoBret Nano-Glo Substrate stock in Opti-MEM was prepared and 20 μl per well of substrate was subsequently added to the assay plates. Following a 2-3 minute incubation at room temperature, donor (450 nm) and acceptor (610 nm) emission values were read on a CLARIOStar multimode plate reader (BMG) in luminescence mode. Data were converted to milliBRET units by dividing acceptor emission values by donor emission and multiplying by 1000. […]
# IKZF3 (Aiolos) = target: T2, IKZF3 (Aiolos) (Homo sapiens, UniProt Q96SW2+Q9UKT9); assay: Stable cell line fluorescent reporter degradation assay, IKZF3; assay type: cell-based; conditions: HEK 293T IKZF3-mNeonGreen reporter cells, 24 hour incubation, calculated visually from the curves; for Dmax at 10 µM: 10 micromolar
# T2 construct: mScarlet (C, cleaved yes); expressed in transfected cells
# From the text: (§1) Polycistronic plasmids were constructed for the mammalian expression of fluorescent reporter fusions of human transcription factors IKZF1 (Ikaros) and IKZF3 (Aiolos). The respective protein sequences had their C-terminal end joined to a GGGGS linker repeated three times followed by mNeonGreen, P2A sequence, and mScarlet. IKZF1 expression was driven by a CMV promoter while IKZF3 was EF1α promoter driven. The plasmids contained the HygR resistance gene for positive selection of cells with genomic integration of the reporter constructs. The plasmids were transfected using cationic lipid reagents into adherent HEK 293T cells and stable integrants were selected by treatment with 200 ug/mL hygromycin B. Clonal populations were obtained from the population of stable integrants either by limiting dilution or fluorescence activated cell sorting. The clonal stable cell lines were maintained under constant 200 ug/mL hygromycin B selection while being passaged for use in the degradation assays. The fluorescence intensity of the IKZF1/2/3-mNeonGreen (FITC channel) and mScarlet (PE channel) reporters were routinely analyzed by flow cytometry to confirm consistent expression levels between experiments.
# (§2) Representative compounds were evaluated for their ability to degrade IKZF1 and IKZF3 in the following assay.
# (§3) The IKZF1/IKZF3 degradation assays were carried out by harvesting the HEK 293T reporter cell lines and resuspending the cells in media formulated for reduced background fluorescence. The respective cell lines were seeded at a density of 4,000 cells/well into black-walled 384-well optical grade assay plates pre-coated by the manufacturer with PDL. The cells were incubated overnight to allow for attachment to the assay plate (37° C. with humidified air and 5% CO2 for all incubations). Dilutions of the compounds were prepared in dimethyl sulfoxide (DMSO) from 10 mM compound stock solutions in DMSO. The assay plates were treated with appropriate concentrations of the compounds by dispensing the DMSO dilutions in quadruplicate wells with an upper limit of 0.5% final DMSO.
# (§4) After a 24 hour incubation with the compounds, the assay plates were imaged on an ImageXpress Pico microscopy system (cells maintained at 37° C. during imaging) to obtain the fluorescent readouts. The assay plates were imaged in the FITC and TRITC channels to obtain the mNeonGreen fluorescence intensity (reporter degradation data) and mScarlet fluorescence intensity (for cell segmentation), respectively. 293T-IKZF1 and 293T-IKZF3 reporter cell lines were imaged with exposures of 500 milliseconds (ms) for both FITC and TRITC channels. The resulting data was analyzed with Cell Reporter Xpress software using the 2-channel cell scoring analysis with a “percent positive” readout. The TRITC channel was selected for the “nuclei” segmentation with a threshold of 20 while the FITC channel was selected for the “Marker 1” segmentation and a threshold of 100 for the IKZF1 and IKZF3 reporter lines. The minimum segmentation width was set to 6 micrometers and the maximum segmentation width was set to 15 micrometers for all cell lines.
# (§5) The percent degradation amounts were calculated visually from the curves generated at a concentration of 10 micromolar.
# IKZF1 (Ikaros) = target: T3, IKZF1 (Ikaros) (Homo sapiens, UniProt Q13422+Q96SW2); assay: Stable cell line fluorescent reporter degradation assay, IKZF1; assay type: cell-based; conditions: HEK 293T IKZF1-mNeonGreen reporter cells, 24 hour incubation, calculated visually from the curves; for Dmax at 10 µM: 10 micromolar
# T3 construct: mScarlet (C, cleaved yes); expressed in transfected cells
# From the text: as §1, §2, §3, §4, §5
# T3 sequence (Q13422 whole entry): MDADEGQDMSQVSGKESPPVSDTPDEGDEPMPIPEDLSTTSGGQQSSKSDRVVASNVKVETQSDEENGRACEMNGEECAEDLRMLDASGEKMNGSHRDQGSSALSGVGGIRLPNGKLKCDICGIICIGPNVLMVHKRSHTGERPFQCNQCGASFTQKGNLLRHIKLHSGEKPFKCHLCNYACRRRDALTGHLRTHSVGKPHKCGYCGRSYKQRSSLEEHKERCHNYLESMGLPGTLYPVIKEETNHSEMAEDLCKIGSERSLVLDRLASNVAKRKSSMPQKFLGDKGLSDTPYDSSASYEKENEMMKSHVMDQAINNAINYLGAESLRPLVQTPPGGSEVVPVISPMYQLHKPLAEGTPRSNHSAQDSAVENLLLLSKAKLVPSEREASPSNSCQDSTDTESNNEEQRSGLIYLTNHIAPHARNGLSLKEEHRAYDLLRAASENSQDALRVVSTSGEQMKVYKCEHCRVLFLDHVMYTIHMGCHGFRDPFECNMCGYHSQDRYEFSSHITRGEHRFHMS
# T3 sequence (Q96SW2 whole entry): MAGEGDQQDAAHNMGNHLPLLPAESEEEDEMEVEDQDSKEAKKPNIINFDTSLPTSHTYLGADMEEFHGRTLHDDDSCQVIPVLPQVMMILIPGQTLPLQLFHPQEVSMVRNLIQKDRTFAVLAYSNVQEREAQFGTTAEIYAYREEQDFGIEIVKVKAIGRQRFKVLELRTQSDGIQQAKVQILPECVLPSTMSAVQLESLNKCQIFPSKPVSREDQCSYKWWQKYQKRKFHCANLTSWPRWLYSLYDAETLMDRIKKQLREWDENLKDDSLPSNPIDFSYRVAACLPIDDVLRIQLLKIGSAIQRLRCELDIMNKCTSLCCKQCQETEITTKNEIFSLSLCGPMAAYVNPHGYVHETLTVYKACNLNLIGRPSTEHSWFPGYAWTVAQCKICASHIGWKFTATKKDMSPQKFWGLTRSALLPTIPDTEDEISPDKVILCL
# T3 sequence (Q16531 whole entry partner): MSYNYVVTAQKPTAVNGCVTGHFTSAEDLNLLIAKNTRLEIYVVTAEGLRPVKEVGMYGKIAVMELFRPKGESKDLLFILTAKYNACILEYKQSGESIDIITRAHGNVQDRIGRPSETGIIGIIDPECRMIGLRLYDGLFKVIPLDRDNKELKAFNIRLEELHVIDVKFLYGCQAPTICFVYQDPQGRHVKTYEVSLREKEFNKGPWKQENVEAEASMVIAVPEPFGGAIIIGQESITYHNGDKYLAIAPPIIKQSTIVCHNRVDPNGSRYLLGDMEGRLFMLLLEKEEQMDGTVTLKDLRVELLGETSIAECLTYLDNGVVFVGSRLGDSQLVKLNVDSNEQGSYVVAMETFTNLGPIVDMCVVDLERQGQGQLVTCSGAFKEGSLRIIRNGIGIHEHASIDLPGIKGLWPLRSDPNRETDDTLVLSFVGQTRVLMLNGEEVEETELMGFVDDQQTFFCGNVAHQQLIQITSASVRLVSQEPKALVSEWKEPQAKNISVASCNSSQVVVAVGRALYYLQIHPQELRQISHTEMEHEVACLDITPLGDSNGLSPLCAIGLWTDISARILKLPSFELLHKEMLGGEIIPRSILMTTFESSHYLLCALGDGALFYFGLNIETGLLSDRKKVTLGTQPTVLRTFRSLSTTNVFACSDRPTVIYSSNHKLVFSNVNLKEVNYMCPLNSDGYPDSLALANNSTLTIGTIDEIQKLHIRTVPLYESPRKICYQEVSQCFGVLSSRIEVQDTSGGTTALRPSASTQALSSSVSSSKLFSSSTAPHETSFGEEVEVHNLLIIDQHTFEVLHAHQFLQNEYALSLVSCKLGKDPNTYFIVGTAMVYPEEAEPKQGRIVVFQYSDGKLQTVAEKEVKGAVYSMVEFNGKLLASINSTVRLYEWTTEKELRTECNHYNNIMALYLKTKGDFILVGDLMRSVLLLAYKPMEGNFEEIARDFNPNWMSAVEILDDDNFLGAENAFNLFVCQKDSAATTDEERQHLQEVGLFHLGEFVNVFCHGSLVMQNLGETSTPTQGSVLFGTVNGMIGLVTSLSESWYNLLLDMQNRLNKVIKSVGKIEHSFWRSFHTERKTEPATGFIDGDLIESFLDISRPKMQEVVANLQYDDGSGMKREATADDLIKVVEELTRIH
# T1 sequence (Q96SW2 whole entry): as the sequence (Q96SW2 whole entry) above
# T2 sequence (Q9UKT9 whole entry): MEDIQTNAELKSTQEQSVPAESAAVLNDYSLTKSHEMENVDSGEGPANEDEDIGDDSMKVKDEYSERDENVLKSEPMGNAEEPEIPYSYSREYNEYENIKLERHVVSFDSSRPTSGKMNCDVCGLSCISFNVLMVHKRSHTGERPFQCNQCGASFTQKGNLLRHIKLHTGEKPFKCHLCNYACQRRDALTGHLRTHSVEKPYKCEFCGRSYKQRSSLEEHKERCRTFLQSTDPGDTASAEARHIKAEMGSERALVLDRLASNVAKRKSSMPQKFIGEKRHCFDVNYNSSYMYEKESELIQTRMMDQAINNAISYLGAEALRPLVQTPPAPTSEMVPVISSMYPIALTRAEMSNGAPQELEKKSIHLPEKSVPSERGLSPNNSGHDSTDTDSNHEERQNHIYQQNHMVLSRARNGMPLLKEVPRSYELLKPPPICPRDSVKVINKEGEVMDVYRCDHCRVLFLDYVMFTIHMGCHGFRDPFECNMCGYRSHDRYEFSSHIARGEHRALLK
# T2 sequence (Q96SW2 whole entry): as the sequence (Q96SW2 whole entry) above
# T2 sequence (Q16531 whole entry partner): as the sequence (Q16531 whole entry partner) above
Compound,remaining activity at 10 µM (cereblon (NanoLuc-CRBN)),inhibition at 10 µM (cereblon (NanoLuc-CRBN)),further results
"COc1ccccc1CNc1cccc2nc(C)n(C3CCC(=O)NC3=O)c(=O)c12 (stereo not shown) [Example 2, 3-(5-((2-methoxybenzyl)amino)-2-methyl-4-oxoquinazolin-3(4H)-yl)piperidine-2,6-dione]",47.4%,52.6%,–
"COc1cccc(CNc2cccc3nc(C)n(C4CCC(=O)NC4=O)c(=O)c23)c1 (stereo not shown) [Example 3, 3-(5-((3-methoxybenzyl)amino)-2-methyl-4-oxoquinazolin-3(4H)-yl)piperidine-2,6-dione]",27.3%,72.7%,–
"Cc1nc2cccc(NCc3ccccc3F)c2c(=O)n1C1CCC(=O)NC1=O (stereo not shown) [Example 6, 3-(5-((2-fluorobenzyl)amino)-2-methyl-4-oxoquinazolin-3(4H)-yl)piperidine-2,6-dione]",26.6%,73.4%,–
"Cc1ccc(CNc2cccc3nc(C)n(C4CCC(=O)NC4=O)c(=O)c23)cc1 (stereo not shown) [Example 8, 3-(2-methyl-5-((4-methylbenzyl)amino)-4-oxoquinazolin-3(4H)-yl)piperidine-2,6-dione]",47.7%,52.3%,–
"Cc1nc2cccc(NCc3ccccc3Cl)c2c(=O)n1C1CCC(=O)NC1=O (stereo not shown) [Example 9, 3-(5-((2-chlorobenzyl)-amino)-2-methyl-4-oxoquinazolin-3(4H)-yl)piperidine-2,6-dione]",30.2%,69.8%,–
"Cc1nc2cccc(NCc3cccc(Cl)c3)c2c(=O)n1C1CCC(=O)NC1=O (stereo not shown) [Example 10, 3-(5-((3-chlorobenzyl)-amino)-2-methyl-4-oxoquinazolin-3(4H)-yl)piperidine-2,6-dione]",20.2%,79.8%,–
"Cc1ccccc1CNc1cccc2nc(C)n(C3CCC(=O)NC3=O)c(=O)c12 (stereo not shown) [Example 11, 3-(5-((2-methylbenzyl)-amino)-2-methyl-4-oxoquinazolin-3(4H)-yl)piperidine-2,6-dione]",30.2%,69.8%,–
"COc1ccc(CNc2cccc3nc(C)n(C4CCC(=O)NC4=O)c(=O)c23)cc1OC (stereo not shown) [Example 12, 3-(5-((3,4-dimethoxy-benzyl)-amino)-2-methyl-4-oxoquinazolin-3(4H)-yl)piperidine-2,6-dione]",0%,100%,–
"Cc1nc2cccc(NCc3ccccc3C#N)c2c(=O)n1C1CCC(=O)NC1=O (stereo not shown) [Example 13, 3-(5-((2-cyanobenzyl)-amino)-2-methyl-4-oxoquinazolin-3(4H)-yl)piperidine-2,6-dione]",16%,84%,–
"Cc1nc2cccc(NCc3ccc(C#N)cc3)c2c(=O)n1C1CCC(=O)NC1=O (stereo not shown) [Example 14, 3-(5-((4-cyanobenzyl)-amino)-2-methyl-4-oxoquinazolin-3(4H)-yl)piperidine-2,6-dione]",11.5%,88.5%,–
"Cc1nc2cccc(NCc3ccc(C(F)(F)F)cc3)c2c(=O)n1C1CCC(=O)NC1=O (stereo not shown) [Example 15, 3-(5-((4-trifluoromethyl-benzyl)-amino)-2-methyl-4-oxoquinazolin-3(4H)-yl)piperidine-2,6-dione]",23.9%,76.1%,–
"COc1cc(CNc2cccc3nc(C)n(C4CCC(=O)NC4=O)c(=O)c23)cc(OC)c1 (stereo not shown) [Example 16, 3-(5-((3,5-dimethoxy-benzyl)-amino)-2-methyl-4-oxoquinazolin-3(4H)-yl)piperidine-2,6-dione]",20.9%,79.1%,–
"COc1ccc(CNc2cccc3nc(C)n(C4CCC(=O)NC4=O)c(=O)c23)c(OC)c1 (stereo not shown) [Example 17, 3-(5-((2,4-dimethoxy-benzyl)-amino)-2-methyl-4-oxoquinazolin-3(4H)-yl)piperidine-2,6-dione]",34.8%,65.2%,–
"Cc1nc2cccc(NCc3c(Cl)cccc3Cl)c2c(=O)n1C1CCC(=O)NC1=O (stereo not shown) [Example 18, 3-(5-((2,6-dichlorobenzyl)-amino)-2-methyl-4-oxoquinazolin-3(4H)-yl)piperidine-2,6-dione]",21.3%,78.7%,–
"COc1ccc(OC)c(CNc2cccc3nnn(C4CCC(=O)NC4=O)c(=O)c23)c1 (stereo not shown) [Example 19, 3-(5-((2,5-dimethoxybenzyl)amino)-4-oxobenzo[d][1,2,3]triazin-3(4H)-yl)piperidine-2,6-dione]",29.7%,71.3%,–
"Cc1nc2cccc(NCc3cc(Cl)ccc3Cl)c2c(=O)n1C1CCC(=O)NC1=O (stereo not shown) [Example 20, 3-(5-((2,5-dichlorobenzyl)amino)-2-methyl-4-oxoquinazolin-3(4H)-yl)piperidine-2,6-dione]",12.1%,87.9%,–
"Cc1nc2cccc(NCc3ccc(CO)cc3)c2c(=O)n1C1CCC(=O)NC1=O (stereo not shown) [Example 21, 3-(5-((4-(hydroxymethyl)benzyl)amino)-2-methyl-4-oxoquinazolin-3(4H)-yl)piperidine-2,6-dione]",9.9%,90.1%,–
"Cc1nc2cccc(NCc3ccc(CN4CC(N5CCOCC5)C4)cc3F)c2c(=O)n1C1CCC(=O)NC1=O (stereo not shown) [Example 96, 3-(5-((2-fluoro-4-((3-morpholinoazetidin-1-yl)methyl)benzyl)amino)-2-methyl-4-oxoquinazolin-3(4H)-yl)piperidine-2,6-dione]",–,–,% Degradation IKZF3 @ 10 micromolar (IKZF3 (Aiolos)): 92.6%; % Degradation IKZF1 @ 10 micromolar (IKZF1 (Ikaros)): 92.6%
"Cc1nc2cccc(NCc3ccc(CN4CCOCC4)cc3)c2c(=O)n1C1CCC(=O)NC1=O (stereo not shown) [compound 32, 3-(2-methyl-5-((4-(morpholinomethyl)benzyl)amino)-4-oxoquinazolin-3(4H)-yl)piperidine-2,6-dione]",–,–,Dmax at 10 µM (IKZF3 (Aiolos)): 91.9%; Dmax at 10 µM (IKZF1 (Ikaros)): 93.8%
"Cc1nc2cccc(NCc3cccc(CN4CCN(c5ccc(C#N)cc5F)CC4)c3)c2c(=O)n1C1CCC(=O)NC1=O (stereo not shown) [compound 33, 4-(4-(3-(((3-(2,6-dioxopiperidin-3-yl)-2-methyl-4-oxo-3,4-dihydroquinazolin-5-yl)amino)methyl)benzyl)piperazin-1-yl)-3-fluorobenzonitrile]",–,–,Dmax at 10 µM (IKZF3 (Aiolos)): 87.4%; Dmax at 10 µM (IKZF1 (Ikaros)): 95.5%
